{
  "source": "paper PMC7811009",
  "about": "“Oxytocin modulates local topography of human functional connectome in healthy men at rest” (Communications Biology, 2021)",
  "key": {"[1]": {"experiment": "Plasma oxytocin concentration by radioimmunoassay after 40 IU intranasal (spray or nebuliser) or 10 IU intravenous oxytocin", "format": "in vivo, human", "details": "for level at 0.95 h: male, human, 57 minutes post-administration (from last treatment offset), read-out: Concentration of plasmatic oxytocin", "excerpt": "We employed a double-blind, placebo-controlled, triple-dummy, crossover design. Participants visited our centre for 4 experimental sessions spaced 8.90 days apart on average (SD = 5.65, range: 5–28 days). In each session, participants received treatment via all three administration routes, in one of two fixed sequences: either nebuliser/intravenous infusion/standard nasal spray, or standard nasal spray/intravenous infusion/nebuliser, according to the treatment administration scheme presented in Fig. 8 (upper panel). In three out of four sessions only one route of administration contained the active drug; in the fourth session, all routes delivered placebo or saline. Participants were randomly allocated to a treatment order (i.e. a specific plan regarding which route delivered the active drug in each experimental session) that was determined using a Latin square design. Unbeknown to the participants, the first treatment administration method in each session always contained placebo (see Fig. 8, upper panel), while intranasal (spray or nebuliser) oxytocin was only delivered with the third treatment administration. This protocol maintained double-blinding while avoiding the potential washing-out of intranasally deposited oxytocin (as might have been the case if oxytocin had been administered at the first treatment administration point and placebo at the third administration point). All sessions were conducted during the morning to minimise potential circadian variability in resting brain activity[79] or oxytocin levels.\nFor the intranasal administrations, participants self-administered a nominal dose of 40 IU oxytocin (Syntocinon; 40 IU/ml; Novartis, Basel, Switzerland), one of the highest clinically applicable doses[81] that would insure that lack of effects on the brain are unlikely to result from under-dosing. We have shown that 40 IU delivered with a standard nasal spray induce robust rCBF changes in two different cohorts of healthy men using between-[12] and within-subjects[11] designs. Work from others have also reported this dose to modulate resting functional connectivity[19],[82]. For the intranasal administration, we used specially manufactured placebo that contained the same excipients as Syntocinon except for oxytocin. Participants self-administered intranasal oxytocin or placebo with the nasal spray or nebuliser following under the supervision of the lead experimenter who ensured the correct application of the devices. Additionally, all participants had been trained during the screening visit in the correct administration procedures.\nParticipants followed our standard in-house protocol that we have used consistently across all of our studies and is consistent with the guidelines outlined by Guastella et al. (2013)[83]. […] Participants blocked opposite nostril while administering each puff, and each puff was followed by an immediate, brief, sharp, snort.\nParticipants self-administered 40 IU oxytocin (Syntocinon) or placebo, by operating the SINUS nebulizer for 3 min in each nostril (6 min in total), according to instructions. The correct application of the device was confirmed by determining gravimetrically the administered volume. Participants were instructed to breathe using only their mouth and to keep a constant breathing rate with their soft palate closed, to minimize delivery to the lungs. Previous studies using this nebuliser[34] have shown up to 9.0% (±1.9%) of the total administered dose to be delivered to the olfactory region, 15.7% (±2.4%) to the upper nose.\nFor the intravenous administration, we delivered 10 IU oxytocin (Syntocinon injection formulation, 10 IU/ml, Alliance, UK) or saline via slow infusion over 10 min (1IU/min). A 50-ml syringe was loaded with either 32 ml of 0.9% sodium chloride (placebo) or 30 ml of 0.9% sodium chloride with […] of Syntocinon (10 IU/ml). […]"}, "[2]": {"test_system": "human functional connectome at rest", "experiment": "Resting-state BOLD-fMRI, graph theory: node degree (mesoscale); same doses, time and cohort", "format": "in vivo", "details": "post-hoc paired t-tests, FDR", "procedure": "Each experimental session began with the treatment administration protocol that lasted about 22 min in total (Fig. 8, lower panel). After drug administration, participants were guided to the MRI scanner, where eight pulsed continuous arterial spin labelling scans (each lasting approx. eight minutes) were acquired, spanning 15–104 min post-dosing (data reported elsewhere[11]). The 8-min resting state BOLD-fMRI scan reported herein was obtained at about 57 ± 3.38 min post-dosing. Participants were instructed to lie still and maintain their gaze on a centrally placed fixation cross during scanning. We assessed participants’ levels of alertness (anchors: alert-drowsy) and excitement (anchors: excited-calm) using visual analogue scales (0–100) at three different time-points during the scanning session to evaluate subjective drug effects across time (data reported elsewhere[11]).\nWe used the CONN functional connectivity toolbox[97] to generate brain-wide functional connectivity matrices for each subject/session. […] The default atlas of the CONN toolbox includes 132 non-overlapping ROIs spanning cortical and subcortical areas and the cerebellum using a combination of the cortical and subcortical areas from the FSL Harvard-Oxford atlas and of the cerebellar areas of the Automatic Anatomical Labelling atlas (Supplementary data 1 for a detailed description). […] Finally, we normalized our correlation measures to z-scores using the Fisher’s r-z transform per subject/session.\nWe then used our z-transformed connectivity matrices to construct brain graphs representing a functional connectivity network for each subject/session. We used an undirected signed weighted approach in which we kept information about the sign and weight of each of the connections between the nodes (ROIs) of our network, without making assumptions about the direction of this relationship. These connectivity matrices represent fully connected networks, where each node corresponds to each of the ROIs we used to build the functional connectivity matrices and each edge represents the z-transformed value of functional connectivity between a pair of nodes. […] We used the fully weighted networks to calculate equi-sparse networks by retaining a fixed percentage (K) of the total amount of possible edges. […]\nFor each of the graph metrics analysed, we summarized the different values over the range of thresholds using the area under the curve (AUC), instead of applying multiple testing for each metric/threshold. […]"}},
  "note": "Where two headings read alike, the source gives them in different places.",
  "data": [
    {"smiles": "CC[C@H](C)[C@@H]1NC(=O)[C@H](Cc2ccc(O)cc2)NC(=O)[C@@H](N)CSSC[C@@H](C(=O)N2CCC[C@H]2C(=O)N[C@@H](CC(C)C)C(=O)NCC(N)=O)NC(=O)[C@H](CC(N)=O)NC(=O)[C@H](CCC(N)=O)NC1=O", "note": "[oxytocin]", "values": [
      {"measurement": "Plasmatic oxytocin concentrations at post-administration, intravenous versus other conditions", "setting": "[1]; 57 min post-administration, all pTukey < 0.010", "result": "higher in the intravenous condition than in all the other three treatment conditions"},
      {"measurement": "Plasma oxytocin concentrations, spray versus nebuliser", "setting": "[1]; 57 min post-administration, pTukey = 1.000", "result": "did not differ"},
      {"measurement": "Plasma oxytocin concentration at 57 min post-administration compared to baseline", "setting": "[1]; Intranasal (spray, nebuliser) and intravenous administrations, all pTukey < 0.010", "result": "increased plasma oxytocin concentration"},
      {"measurement": "Concentration of plasmatic oxytocin", "setting": "[1]; Nebuliser (40 IU intranasal, PARI SINUS nebuliser), 57 minutes post-administration, plasma, radioimmunoassay after extraction, mean, n = 16 healthy men", "result": 7.207, "unit": "pg/mL"},
      {"measurement": "level at 0.95 h", "setting": "[1]; inhaled or intranasal, Spray (40 IU intranasal, standard nasal spray), plasma, radioimmunoassay after extraction, mean, n = 16 healthy men", "result": 7.03, "unit": "pg/mL"},
      {"measurement": "level at 0.95 h", "setting": "[1]; Intravenous (10 IU infusion over 10 min, 1IU/min), plasma, radioimmunoassay after extraction, mean, n = 16 healthy men", "result": 16.4, "unit": "pg/mL"},
      {"measurement": "Nodes with decreased node degree compared to placebo", "setting": "[2]; intravenous, 10 IU", "result": "decreased the node degree of the precuneus and right temporal pole"},
      {"measurement": "Nodes with increased node degree compared to placebo", "setting": "[2]; nebuliser, 40 IU intranasal", "result": "increased the node degree of the left posterior superior temporal gyrus and left cerebellum (area 7)"},
      {"measurement": "Nodes with decreased node degree compared to placebo", "setting": "[2]; spray, 40 IU intranasal", "result": "decreased the node degree of the right posterior inferior temporal gyrus"},
      {"measurement": "Nodes with increased node degree compared to placebo", "setting": "[2]; spray, 40 IU intranasal", "result": "increased node degree of the brainstem, left cerebellum (area 1) and right intracalcarine cortex"}
    ]}
  ]
}
